Experimental data from patent US7312024B2, “Materials and methods to inhibit Hodgkin and Reed Sternberg cell growth” (Amgen Canada Inc., priority 1999, dated 2007).

System: HDLM2 cells
Assay: [3H]-thymidine incorporation proliferation of HDLM2 cells after neutralization of IL-13
Format: cell-based, human
Conditions: IL-13 0.5-200 ng/ml
Experimental: To investigate the effects of IL-13 and IL-5 on the proliferation of H/RS cells, L428, KMH2 and HDLM2 cells were incubated with either (i) medium alone, (ii) medium containing neutralizing antibodies to IL-13 or IL-5, or (ii) isotype matched control antibodies. Proliferation was measured by determining [^3H]-thyridine incorporation at 24, 48, or 72 hours after treatment.
HD-derived L428, KMH2, and HDLM2 cells and LCL control cells (2×10^4/well) were cultured in 96-well flat-bottom plates for 24 hours, 48 hours, or 72 hours in the presence of anti-IL-13, anti-IL-5, or isotype control antibodies at 5, 10, 20, 30, 50, 100 or 150 μg/ml. Cells were treated either with IL-13 (0.5, 1, 5, 10, 50, 100 and 200 ng/ml), or with these same doses of IL-13 combined with 20 μg/ml anti-IL-13 monoclonal antibody. Tritium-labeled thymidine (1 μCi/well) was added to each well and incubation continued for eight hours. Cells were harvested on filters and incorporation of […] into cellular DNA was measured as previously described [Shahinian, et al., Science 261:609-12 (1993)]. The viability of cultured cell lines after treatment with anti-IL-13 neutralizing antibodies was examined by 7-aminoactinomycin D (7-AAD) staining.

IL-13: exogenous IL-13 cytokine added to cells
proliferation with exogenous IL-13 alone versus untreated cells: did not result in an increase in proliferation
